This note sets out measurements from patent US12295973B2 (Fred Hutchinson Cancer Center, priority 2017, dated 2025).

One test deals with LT-HSCs. Put plainly: Cell cycle status of LT-HSCs in Poly I:C and SL-TBI models, surgically castrated mice. Type of test: in vivo, mouse. As for the experimental part: To further validate this hypothesis, two additional models were used to force HSCs out of their quiescence phase, Poly I:C and sub-lethal dose of total body irradiation (SL-TBI)^35,42,43. To eliminate any potential effects of downstream sex steroids on HSCs, all cohorts of mice in these studies had been surgically castrated.
Reagents: Degarelix (as acetate), a LHRH-Ant (Firmagon), was resuspended in sterile water for injection and administered S.C. to mice at a dose of 40 mg/kg. To evaluate the radiomitigative effect of LHRH-Ant on survival, mice were treated subcutaneously (S.C.) with a single injection of the LHRH-Ant or a saline control solution (PBS). Degarelix was purchased from the Memorial Sloan-Kettering Cancer Center Pharmacy. […] LH from human pituitary (SIGMA) was resuspended in PBS for in vitro studies. MDV3100 (selleckchem) was resuspended in a mixture of 45% PBS, 45% PEG and 10% DMSO and administered daily to mice by oral gavage at a dose of 10 mg/kg. 5-FU (InvivoGen) was administered to mice intraperitoneally (I.P.) at a dose of 150 mg/kg once every 7 days consecutively for 3 times as previously described^34,47,49. […]

In test [1] the test system is committed hematopoietic progenitor cells. Put plainly: Colony-forming unit activity of BM from L-TBI mice. Type of test: in vivo, mouse. To be noted: day 7 after L-TBI. As for the experimental part: To investigate the specific regenerative effects mediated by LHRH-Ant treatment on the hematopoietic stem and progenitor cell (HSPC) compartment, BM were analyzed at several time points after L-TBI. […] To determine hematopoietic functional potential, colony-forming unit activity was next quantified to determine the effects of LHRH-Ant on the recovery of committed hematopoietic progenitor cells. […] Consistent with these functional findings, on day 14 after L-TBI, expansion of LSKs as well as their downstream progenitors in mice given LHRH-Ant were found (FIGS. 2F, 2G). […] However, given the changes in HSC phenotype after radiation, the standard competitive repopulation functional assay was adapted to evaluate the presence and relative quantity of functional HSCs after L-TBI. […]
Colony-Forming Cell (CFC) and Cobblestone Areas Forming Cell (CAFC): Assays were performed as previously described with a minor modifications^50. […] Colonies were scored after 10 days of incubation at 37° C. and 5% CO2. […] After 3 weeks of co-culture, CAFCs were scored as phase-dark hematopoietic clones of at least 5 cells beneath the stromal layer using an inverted microscope.

Molecules are shown by their SMILES. Where a SMILES comes first, the peptide text is derived from it. [ ]: non-standard residue; d: D form. The star is where a group is joined. dPhe(4-NHCONH2) = NC(=O)Nc1ccc(C[C@@H](N)C(=O)O)cc1; Dihydroorotyl(S) = O=C1C[C@@H](C(=O)*)NC(=O)N1; dPhe(4-Cl) = N[C@H](Cc1ccc(Cl)cc1)C(=O)O; Phe(4-NH2) = Nc1ccc(C[C@H](N)C(=O)O)cc1; d2Nal = N[C@H](Cc1ccc2ccccc2c1)C(=O)O; Lys(iPr) = CC(C)NCCCC[C@H](N)C(=O)O; d3Pal = N[C@H](Cc1cccnc1)C(=O)O

Turning to `CC(=O)N[C@H](Cc1ccc2ccccc2c1)C(=O)N[C@H](Cc1ccc(Cl)cc1)C(=O)N[C@H](Cc1cccnc1)C(=O)N[C@@H](CO)C(=O)N[C@@H](Cc1ccc(NC(=O)[C@@H]2CC(=O)NC(=O)N2)cc1)C(=O)N[C@H](Cc1ccc(NC(N)=O)cc1)C(=O)N[C@@H](CC(C)C)C(=O)N[C@@H](CCCCNC(C)C)C(=O)N1CCC[C@H]1C(=O)N[C@H](C)C(N)=O` [LHRH-Ant, Degarelix] (Ac-[d2Nal][dPhe(4-Cl)][d3Pal]S[Phe(4-NH2)](Dihydroorotyl(S))[dPhe(4-NHCONH2)]L[Lys(iPr)]P[dA]-NH2), in the test with LT-HSCs (Poly I:C model), the “LT-HSCs in G0” value is on record as “retained significantly more LT-HSCs in G0”. Besides, the “LT-HSCs in G0” value in the test on LT-HSCs (SL-TBI model) is “retained significantly more LT-HSCs in G0”. In test [1], the BFU-E colonies result is “significant increase” and the CFU-GM colonies entry is on record as “significant increase”.
